Assay results published in ChEMBL document CHEMBL1137686, “Synthesis and anticonvulsant activity of new N-[(4-arylpiperazin-1-yl)-alkyl] derivatives of 3-phenyl-pyrrolidine-2,5-dione” (Eur J Med Chem, 2009).
Calls of active or inactive are those of the source. The rule behind the calls is not given here.

Experiments:
[1] = test system: Mus musculus; assay: Anticonvulsant activity in CF1 albino mouse assessed as inhibition of maximal electroshock-induced seizures at 300 mg/kg, ip after 0.5 hrs; type: functional, organism-based; set-up: dose 300 mg/kg
[2] = test system: Mus musculus; assay: Anticonvulsant activity in CF1 albino mouse assessed as inhibition of maximal electroshock-induced seizures at 300 mg/kg, ip after 4 hrs; type: functional, organism-based; set-up: dose 300 mg/kg
[3] = test system: Mus musculus; assay: Neurotoxicity in CF1 albino mouse assessed as ability to maintain equilibrium for 1 min on […] at 300 mg/kg, ip after 4 hrs by rotarod test; type: toxicity, organism-based; set-up: dose 300 mg/kg, route intraperitoneal; conditions: in vivo
[4] = test system: Mus musculus; assay: Neurotoxicity in CF1 albino mouse assessed as ability to maintain equilibrium for 1 min on […] at 300 mg/kg, ip after 0.5 hrs by rotarod test; type: toxicity, organism-based; set-up: dose 300 mg/kg, route intraperitoneal; conditions: in vivo
[5] = test system: Mus musculus; assay: Neurotoxicity in CF1 albino mouse assessed as death at 300 mg/kg, ip after 0.5 hrs by rotarod test; type: toxicity, organism-based; set-up: dose 300 mg/kg, route intraperitoneal; conditions: in vivo
[6] = test system: Mus musculus; assay: Neurotoxicity in ip dosed CF1 albino mouse assessed as ability to maintain equilibrium for 1 min on […] after 0.5 hrs by rotarod test; type: toxicity, organism-based; conditions: in vivo
[7] = test system: Rattus norvegicus; assay: Anticonvulsant activity in po dosed rat assessed as inhibition of maximal electroshock-induced seizures; type: functional
[8] = test system: Mus musculus; assay: Neurotoxicity in CF1 albino mouse assessed as motor impairment at 30 mg/kg, po after 0.25 hrs by rotarod test; type: toxicity, organism-based; set-up: dose 30 mg/kg, route oral; conditions: in vivo
[9] = test system: Mus musculus; assay: Neurotoxicity in CF1 albino mouse assessed as motor impairment at 30 mg/kg, po after 0.5 hrs by rotarod test; type: toxicity, organism-based; set-up: dose 30 mg/kg, route oral; conditions: in vivo
[10] = test system: Mus musculus; assay: Anticonvulsant activity in CF1 albino mouse assessed as protection against maximal electroshock-induced seizures at 30 mg/kg, po after 4 hrs; type: functional
[11] = test system: Mus musculus; assay: Neurotoxicity in CF1 albino mouse assessed as motor impairment at 30 mg/kg, po after 1 hr by rotarod test; type: toxicity, organism-based; set-up: dose 30 mg/kg, route oral; conditions: in vivo
[12] = test system: Mus musculus; assay: Anticonvulsant activity in CF1 albino mouse assessed as protection against maximal electroshock-induced seizures at 30 mg/kg, po after 2 hrs; type: functional
[13] = test system: Mus musculus; assay: Anticonvulsant activity in CF1 albino mouse assessed as protection against maximal electroshock-induced seizures at 30 mg/kg, po after 0.25 hrs; type: functional
[14] = test system: Mus musculus; assay: Anticonvulsant activity in CF1 albino mouse assessed as protection against maximal electroshock-induced seizures at 30 mg/kg, po after 1 hr; type: functional
[15] = test system: Mus musculus; assay: Neurotoxicity in CF1 albino mouse assessed as motor impairment at 30 mg/kg, po after 4 hrs by rotarod test; type: toxicity, organism-based; set-up: dose 30 mg/kg, route oral; conditions: in vivo
[16] = test system: Mus musculus; assay: Anticonvulsant activity in ip dosed CF1 albino mouse assessed as inhibition of maximal electroshock-induced seizures after 4 hrs; type: functional
[17] = test system: Mus musculus; assay: Neurotoxicity in CF1 albino mouse assessed as motor impairment at 30 mg/kg, po after 2 hrs by rotarod test; type: toxicity, organism-based; set-up: dose 30 mg/kg, route oral; conditions: in vivo
[18] = test system: Mus musculus; assay: Anticonvulsant activity in CF1 albino mouse assessed as protection against maximal electroshock-induced seizures at 30 mg/kg, po after 0.5 hrs; type: functional
[19] = test system: Mus musculus; assay: Neurotoxicity in ip dosed CF1 albino mouse assessed as ability to maintain equilibrium for 1 min on […] after 4 hrs by rotarod test; type: toxicity, organism-based; conditions: in vivo
[20] = test system: Mus musculus; assay: Anticonvulsant activity in ip dosed CF1 albino mouse assessed as inhibition of maximal electroshock-induced seizures after 0.5 hrs; type: functional
[21] = test system: Mus musculus; assay: Toxicity in CF1 albino mouse assessed as myoclonic jerks at 100 mg/kg, ip after 4 hrs; type: organism-based; set-up: dose 100 mg/kg, route intraperitoneal; conditions: in vivo
[22] = test system: Mus musculus; assay: Neurotoxicity in CF1 albino mouse assessed as ability to grasp rotarod at 300 mg/kg, ip after 0.5 hrs by rotarod test; type: toxicity, organism-based; set-up: dose 300 mg/kg, route intraperitoneal; conditions: in vivo

| SMILES | Activity [1] | Activity [2] | Activity [3] | Activity [4] | Activity [6] [mg/kg] | Activity [16] [mg/kg] | Activity [20] [mg/kg] | also measured |
| --- | --- | --- | --- | --- | --- | --- | --- | --- |
| O=C1CC(c2ccccc2C(F)(F)F)C(=O)N1CCN1CCN(c2cccc(C(F)(F)F)c2)CC1 (configuration not stated) | inactive | inactive | Non-toxic | Non-toxic | – | – | – | – |
| COc1ccccc1N1CCN(CCN2C(=O)CC(c3ccccc3C)C2=O)CC1 (configuration not stated) | inactive | inactive | Non-toxic | – | 300 | – | – | Activity [5]: Toxic |
| Cc1ccccc1C1CC(=O)N(CCN2CCN(c3ccccc3)CC2)C1=O (configuration not stated) | inactive | inactive | Non-toxic | – | 300 | – | – | – |
| O=C1CC(c2ccccc2Cl)C(=O)N1CN1CCN(c2cccc(Cl)c2)CC1 (configuration not stated) | – | – | – | – | – | – | – | ED50 [7]: 14.2 mg/kg |
| O=C1CC(c2ccccc2C(F)(F)F)C(=O)N1CCN1CCN(c2cccc(Cl)c2)CC1 (configuration not stated) | inactive | – | Non-toxic | Non-toxic | – | 100 | – | Activity [8]: Non-toxic; Activity [9]: Non-toxic; Activity [10]: inactive; Activity [11]: Non-toxic; Activity [12]: inactive; Activity [13]: inactive; Activity [14]: inactive; Activity [15]: Non-toxic; Activity [17]: Non-toxic; Activity [18]: inactive |
| O=C1CC(c2ccccc2C(F)(F)F)C(=O)N1CN1CCN(c2cccc(Cl)c2)CC1 (configuration not stated) | inactive | – | – | – | 100 | 100 | – | Activity [8]: Non-toxic; Activity [9]: Non-toxic; Activity [10]: 100%; Activity [11]: Non-toxic; Activity [12]: 100%; Activity [19]: 100 mg/kg; Activity [13]: inactive; Activity [14]: 50%; Activity [15]: Non-toxic; Activity [17]: Non-toxic; Activity [18]: 25% |
| O=C1CC(c2ccccc2C(F)(F)F)C(=O)N1CCCN1CCN(c2cccc(Cl)c2)CC1 (configuration not stated) | – | – | – | – | 100 | 100 | 100 | Activity [19]: 300 mg/kg |
| Cc1ccccc1C1CC(=O)N(CCN2CCN(c3cccc(C(F)(F)F)c3)CC2)C1=O (configuration not stated) | – | – | Non-toxic | Non-toxic | – | 300 | 300 | – |
| O=C1CC(c2ccccc2C(F)(F)F)C(=O)N1CCN1CCN(c2ccccc2)CC1 (configuration not stated) | inactive | inactive | Non-toxic | Non-toxic | – | – | – | – |
| COc1ccccc1N1CCN(CCCN2C(=O)CC(c3ccccc3C(F)(F)F)C2=O)CC1 (configuration not stated) | inactive | inactive | – | – | 100 | – | – | Activity [19]: 300 mg/kg |
| Cc1ccccc1C1CC(=O)N(CCCN2CCN(c3cccc(Cl)c3)CC2)C1=O (configuration not stated) | – | – | Non-toxic | – | 300 | 100 | 300 | Activity [8]: Non-toxic; Activity [9]: Non-toxic; Activity [10]: inactive; Activity [11]: Non-toxic; Activity [12]: 25%; Activity [13]: inactive; Activity [14]: inactive; Activity [15]: Non-toxic; Activity [17]: Non-toxic; Activity [18]: inactive |
| O=C1CC(c2ccccc2C(F)(F)F)C(=O)N1CN1CCN(c2ccccc2F)CC1 (configuration not stated) | inactive | – | – | – | 100 | 30 | – | Activity [8]: Non-toxic; Activity [9]: Non-toxic; Activity [10]: 25%; Activity [11]: Non-toxic; Activity [12]: inactive; Activity [19]: 300 mg/kg; Activity [14]: 25%; Activity [15]: Non-toxic; Activity [17]: Non-toxic; Activity [18]: 25% |
| COc1ccccc1N1CCN(CCCN2C(=O)CC(c3ccccc3C)C2=O)CC1 (configuration not stated) | inactive | inactive | Non-toxic | – | 100 | – | – | – |
| Cc1ccccc1C1CC(=O)N(CCCN2CCN(c3cccc(C(F)(F)F)c3)CC2)C1=O (configuration not stated) | – | – | Non-toxic | Non-toxic | – | 100 | 100 | Activity [8]: Non-toxic; Activity [9]: Non-toxic; Activity [10]: inactive; Activity [11]: Non-toxic; Activity [12]: inactive; Activity [13]: inactive; Activity [14]: inactive; Activity [15]: Non-toxic; Activity [17]: 25%; Activity [18]: inactive |
| Cc1ccccc1C1CC(=O)N(CN2CCN(c3ccccc3F)CC2)C1=O (configuration not stated) | inactive | inactive | Non-toxic | – | 300 | – | – | – |
| Cc1ccccc1C1CC(=O)N(CN2CCN(c3cccc(Cl)c3)CC2)C1=O (configuration not stated) | inactive | inactive | Non-toxic | Non-toxic | – | – | – | – |
| COc1ccccc1N1CCN(CN2C(=O)CC(c3ccccc3C)C2=O)CC1.Cl (configuration not stated) | – | inactive | – | – | 100 | – | 300 | Activity [21]: Toxic; Activity [19]: 300 mg/kg |
| Cc1ccccc1C1CC(=O)N(CN2CCN(c3ccccc3)CC2)C1=O (configuration not stated) | inactive | – | – | – | 100 | 300 | – | Activity [19]: 300 mg/kg |
| O=C1CC(c2ccccc2C(F)(F)F)C(=O)N1CCCN1CCN(c2ccccc2)CC1 (configuration not stated) | – | inactive | Non-toxic | – | 300 | – | 300 | Activity [22]: Toxic |
| O=C1CC(c2ccccc2C(F)(F)F)C(=O)N1CCN1CCN(c2ccccc2F)CC1 (configuration not stated) | inactive | inactive | Non-toxic | Non-toxic | – | – | – | – |
| Cc1ccccc1C1CC(=O)N(CCN2CCN(c3ccccc3F)CC2)C1=O (configuration not stated) | inactive | – | Non-toxic | – | 300 | 300 | – | – |
| O=C1CC(c2ccccc2C(F)(F)F)C(=O)N1CN1CCN(c2cccc(C(F)(F)F)c2)CC1 (configuration not stated) | – | – | Non-toxic | – | 300 | 100 | 100 | – |
